Reference: patent US12673961B2 (Agios Pharmaceuticals, Inc., priority 2022, dated 2026)

biological target: T1, human PAH with the R408W mutation (Homo sapiens, UniProt P00439, R408W); assay: Cell Based Phenylalanine Flux Assay; settings: A375 cells expressing human R408W PAH; 24 hrs with compound, then sepiapterin and 13C9,15N-Phenylalanine for 4 hours; 13C-Tyrosine by LC-MS; average where tested multiple times; read-out: AC50;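 note: Ten-point dose curve from 2-fold serial dilutions, run in duplicate at 0.5% DMSO final, tracer step used 20 µM sepiapterin and 800 µM labeled phenylalanine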
T1 construct: expressed in transfected cells
T1 sequence (P00439 1-452 R408W): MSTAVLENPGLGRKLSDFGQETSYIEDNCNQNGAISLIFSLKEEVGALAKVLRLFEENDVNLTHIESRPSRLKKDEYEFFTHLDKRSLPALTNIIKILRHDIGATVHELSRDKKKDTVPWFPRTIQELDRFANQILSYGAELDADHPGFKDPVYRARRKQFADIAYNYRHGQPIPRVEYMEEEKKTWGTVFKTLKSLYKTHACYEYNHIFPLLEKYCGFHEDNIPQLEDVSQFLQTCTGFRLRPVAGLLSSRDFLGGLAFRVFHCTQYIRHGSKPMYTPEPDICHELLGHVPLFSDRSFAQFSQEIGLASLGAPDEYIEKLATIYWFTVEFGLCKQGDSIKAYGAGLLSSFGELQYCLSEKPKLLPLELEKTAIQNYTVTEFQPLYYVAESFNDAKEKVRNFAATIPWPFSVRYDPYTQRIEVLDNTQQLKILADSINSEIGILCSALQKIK

Row | AC50 [nM] | SMILES
1 | < 500 | O=C(c1nnc(-c2ccn(C(F)(F)F)n2)o1)N1CCc2[nH]cnc2[C@H]1c1cc2cccc(Cl)n2n1 [Example 1508, (S)-(4-(7-chloropyrazolo [1,5-a]pyridin-2-yl)-6,7-dihydro-1H-imidazo[4,5-c]pyridin-5(4H)-yl)(5-(1-(trifluoromethyl)-1H-pyrazol-3-yl)-1,3,4-oxadiazol-2-yl)methanone]
2 | > 5000 | O=C(c1nnc(-c2ccn(C(F)(F)F)n2)o1)N1CCc2[nH]cnc2[C@@H]1c1cc2cccc(Cl)n2n1 [Example 1509, (R)-(4-(7-chloropyrazolo [1,5-a]pyridin-2-yl)-6,7-dihydro-1H-imidazo[4,5-c]pyridin-5(4H)-yl)(5-(1-(trifluoromethyl)-1H-pyrazol-3-yl)-1,3,4-oxadiazol-2-yl)methanone]
3 | 500 to 1000 | Cc1cccc2cc([C@@H]3c4nc[nH]c4CCN3C(=O)c3nnc(-c4ccn(C(F)(F)F)n4)o3)nn12 [Example 1510, (S)-(4-(7-methylpyrazolo [1,5-a]pyridin-2-yl)-6,7-dihydro-1H-imidazo[4,5-c]pyridin-5(4H)-yl)(5-(1-(trifluoromethyl)-1H-pyrazol-3-yl)-1,3,4-oxadiazol-2-yl)methanone]
4 | 1000 to 5000 | Cc1cccc2cc([C@H]3c4nc[nH]c4CCN3C(=O)c3nnc(-c4ccn(C(F)(F)F)n4)o3)nn12 [Example 1511, (R)-(4-(7-methylpyrazolo [1,5-a]pyridin-2-yl)-6,7-dihydro-1H-imidazo[4,5-c]pyridin-5(4H)-yl)(5-(1-(trifluoromethyl)-1H-pyrazol-3-yl)-1,3,4-oxadiazol-2-yl)methanone]
5 | > 5000 | O=C(c1nnc(C2CCC2)o1)N1CCc2[nH]cnc2[C@@H]1c1cc2ccccn2n1 [Example 1515, (R)-(5-cyclobutyl-1,3,4-oxadiazol-2-yl)(4-(pyrazolo[1,5-a]pyridin-2-yl)-6,7-dihydro-1H-imidazo[4,5-c]pyridin-5(4H)-yl)methanone]
6 | < 500 | O=C(c1nnc(C2CCC2)o1)N1CCc2[nH]cnc2[C@H]1c1cc2c(Cl)cccn2n1 [Example 1517, (S)-(4-(4-chloropyrazolo [1,5-a]pyridin-2-yl)-6,7-dihydro-1H-imidazo[4,5-c]pyridin-5(4H)-yl)(5-cyclobutyl-1,3,4-oxadiazol-2-yl)methanone]
7 | < 500 | O=C(c1nnc(C2CCC2)o1)N1CCc2[nH]cnc2[C@H]1c1cc2c(C(F)(F)F)cccn2n1 [Example 1519, (S)-(5-cyclobutyl-1,3,4-oxadiazol-2-yl)(4-(4-(trifluoromethyl)pyrazolo [1,5-a]pyridin-2-yl)-6,7-dihydro-1H-imidazo[4,5-c]pyridin-5(4H)-yl)methanone]
8 | < 500 | O=C(c1nnc(C2CCC2)o1)N1CCc2[nH]cnc2[C@H]1c1cc2c(C(F)F)cccn2n1 [Example 1520, (S)-(5-cyclobutyl-1,3,4-oxadiazol-2-yl)(4-(4-(difluoromethyl)pyrazolo [1,5-a]pyridin-2-yl)-6,7-dihydro-1H-imidazo[4,5-c]pyridin-5(4H)-yl)methanone]
9 | 500 to 1000 | Cn1nccc1-c1nnc(C(=O)N2CCc3[nH]cnc3[C@H]2c2cc3cccc(F)n3n2)o1 [Example 1526, (S)-(4-(7-fluoropyrazolo[1,5-a]pyridin-2-yl)-6,7-dihydro-1H-imidazo[4,5-c]pyridin-5(4H)-yl)(5-(1-methyl-1H-pyrazol-5-yl)-1,3,4-oxadiazol-2-yl)methanone]
10 | 1000 to 5000 | Cc1cnn(C)c1-c1nnc(C(=O)N2CCc3[nH]cnc3[C@@H]2c2cc3cccc(F)n3n2)o1 [Example 1529, (R)-(5-(1,4-dimethyl-1H-pyrazol-5-yl)-1,3,4-oxadiazol-2-yl)(4-(7-fluoropyrazolo [1,5-a]pyridin-2-yl)-6,7-dihydro-1H-imidazo[4,5-c]pyridin-5(4H)-yl)methanone]
11 | > 5000 | Cn1nccc1-c1nnc(C(=O)N2CCc3[nH]cnc3[C@@H]2c2cc3c(C(F)F)cccn3n2)o1 [Example 1533, (R)-(4-(4-(difluoromethyl)pyrazolo[1,5-a]pyridin-2-yl)-6,7-dihydro-1H-imidazo [4,5-c]pyridin-5(4H)-yl)(5-(1-methyl-1H-pyrazol-5-yl)-1,3,4-oxadiazol-2-yl)methanone]
12 | 500 to 1000 | O=C(c1nnc(-c2cnccn2)o1)N1CCc2[nH]cnc2[C@H]1c1cc2cccc(C(F)F)n2n1 [Example 1535, (S)-(4-(7-(difluoromethyl)pyrazolo[1,5-a]pyridin-2-yl)-6,7-dihydro-1H-imidazo[4,5-c]pyridin-5(4H)-yl)(5-(pyrazin-2-yl)-1,3,4-oxadiazol-2-yl)methanone]
13 | > 5000 | Cc1cc(-c2nnc(C(=O)N3CCc4[nH]cnc4[C@@H]3c3cc4cccc(C(F)F)n4n3)o2)nn1C [Example 1536, (R)-(4-(7-(difluoromethyl)pyrazolo[1,5-a]pyridin-2-yl)-6,7-dihydro-1H-imidazo[4,5-c]pyridin-5(4H)-yl)(5-(1,5-dimethyl-1H-pyrazol-3-yl)-1,3,4-oxadiazol-2-yl)methanone]
14 | > 5000 | O=C(c1nnc(-c2cnn(C(F)(F)F)c2)o1)N1CCc2[nH]cnc2[C@@H]1c1cc2c(C(F)(F)F)cccn2n1 [Example 1539, (R)-(5-(1-(trifluoromethyl)-1H-pyrazol-4-yl)-1,3,4-oxadiazol-2-yl)(4-(4-(trifluoromethyl)pyrazolo[1,5-a]pyridin-2-yl)-6,7-dihydro-1H-imidazo[4,5-c]pyridin-5(4H)-yl)methanone]
15 | 1000 to 5000 | O=C(c1nnc(-c2cnn(C(F)(F)F)c2)o1)N1CCc2[nH]cnc2[C@@H]1c1cc2c(F)cccn2n1 [Example 1541, (R)-(4-(4-fluoropyrazolo [1,5-a]pyridin-2-yl)-6,7-dihydro-1H-imidazo[4,5-c]pyridin-5(4H)-yl)(5-(1-(trifluoromethyl)-1H-pyrazol-4-yl)-1,3,4-oxadiazol-2-yl)methanone]
16 | < 500 | O=C(c1cnn2cc(-c3ccccn3)ccc12)N1CCc2[nH]cnc2[C@H]1c1cc2c(C(F)(F)F)cccn2n1 [Example 1550, (S)-(6-(pyridin-2-yl)pyrazolo [1,5-a]pyridin-3-yl)(4-(4-(trifluoromethyl)pyrazolo [1,5-a]pyridin-2-yl)-6,7-dihydro-1H-imidazo[4,5-c]pyridin-5(4H)-yl)methanone]
17 | < 500 | Cn1cc(-c2ccc3c(C(=O)N4CCc5[nH]cnc5[C@H]4c4cc5c(C(F)(F)F)cccn5n4)cnn3c2)cn1 [Example 1552, (S)-(6-(1-methyl-1H-pyrazol-4-yl)pyrazolo[1,5-a]pyridin-3-yl)(4-(4-(trifluoromethyl)pyrazolo[1,5-a]pyridin-2-yl)-6,7-dihydro-1H-imidazo[4,5-c]pyridin-5(4H)-yl)methanone]
18 | > 5000 | CC(C)c1nnc(C(=O)N2CCc3[nH]cnc3[C@@H]2c2cc3cccc(F)n3n2)o1 [Example 1554]
19 | 1000 to 5000 | O=C(c1nnc(C2CCC2)o1)N1CCc2[nH]cnc2[C@@H]1c1cc2c(F)cccn2n1 [Example 1558, (R)-(5-cyclobutyl-1,3,4-oxadiazol-2-yl)(4-(4-fluoropyrazolo[1,5-a]pyridin-2-yl)-6,7-dihydro-1H-imidazo[4,5-c]pyridin-5(4H)-yl)methanone]
20 | < 500 | Cc1cc(-c2nnc(C(=O)N3CCc4[nH]cnc4[C@H]3c3cc4cccc(F)n4n3)o2)nn1C [Example 1565, (S)-(5-(1,5-dimethyl-1H-pyrazol-3-yl)-1,3,4-oxadiazol-2-yl)(4-(7-fluoropyrazolo[1,5-a]pyridin-2-yl)-6,7-dihydro-1H-imidazo[4,5-c]pyridin-5(4H)-yl)methanone]
21 | < 500 | Cc1cnn(C)c1-c1nnc(C(=O)N2CCc3[nH]cnc3[C@H]2c2cc3c(C(F)F)cccn3n2)o1 [Example 1568, (S)-(4-(4-(difluoromethyl)pyrazolo[1,5-a]pyridin-2-yl)-6,7-dihydro-1H-imidazo [4,5-c]pyridin-5(4H)-yl)(5-(1,4-dimethyl-1H-pyrazol-5-yl)-1,3,4-oxadiazol-2-yl)methanone]
22 | 500 to 1000 | c1ccc2oc(N3CCc4[nH]cnc4[C@H]3c3cc4ccccn4n3)nc2c1 [Example 1577, (S)-2-(4-(pyrazolo[1,5-a]pyridin-2-yl)-6,7-dihydro-1H-imidazo[4,5-c]pyridin-5(4H)-yl)benzo[d]oxazole]
23 | 1000 to 5000 | O=C(c1nnc(C2CC(F)(F)C2)o1)N1CCc2[nH]cnc2[C@@H]1c1cc2c(Cl)cccn2n1 [Example 1586, (R)-(4-(4-chloropyrazolo [1,5-a]pyridin-2-yl)-6,7-dihydro-1H-imidazo [4,5-c]pyridin-5(4H)-yl)(5-(3,3-difluorocyclobutyl)-1,3,4-oxadiazol-2-yl)methanone]
24 | < 500 | O=C(c1nnc(C2CC(F)(F)C2)o1)N1CCc2[nH]cnc2[C@H]1c1cc2c(Cl)cccn2n1 [Example 1587, (S)-(4-(4-chloropyrazolo [1,5-a]pyridin-2-yl)-6,7-dihydro-1H-imidazo[4,5-c]pyridin-5(4H)-yl)(5-(3,3-difluorocyclobutyl)-1,3,4-oxadiazol-2-yl)methanone]
25 | 500 to 1000 | FC(F)(F)c1cccn2nc([C@@H]3c4nc[nH]c4CCN3c3nnc(C4CC4)o3)cc12 [Example 1591, (S)-2-cyclopropyl-5-(4-(4-(trifluoromethyl)pyrazolo[1,5-a]pyridin-2-yl)-6,7-dihydro-1H-imidazo[4,5-c]pyridin-5(4H)-yl)-1,3,4-oxadiazole]

Row | SMILES | AC50 [nM]
26 | c1cnc(N2CCc3[nH]cnc3[C@H]2c2cc3ccccn3n2)nc1 [Example 1592, (S)-4-(pyrazolo[1,5-a]pyridin-2-yl)-5-(pyrimidin-2-yl)-4,5,6,7-tetrahydro-1H-imidazo[4,5-c]pyridine] | 500 to 1000
